Counter-ions that a name gives are not always drawn.
Columns and labels:
Guinea Pig Ileum = test: Guinea pig ileum assay: inhibition of tonic contraction (K+ challenge) of longitudinal muscle, calcium channel blocking; format: cell-based; details: Cavia porcellus; concentration inhibiting tonic contraction of muscle by 50%; 80 mM K+ challenge, 37° C., compound 2 minutes prior
Experimental: GUINEA PIG ILEUM ASSAY Male guinea-pigs weighing from 300-400 grams were stunned and bled. The abdomen was opened and 10-15 cm of terminal ileum was carefully removed and cleaned and placed in Tyrode's Solution of the following composition: NaCl (8 g/l), KCl (0.2 g/l), MgCl2 (0.1 g/l.), CaCl2 (0.2 g/l). NaH2 PO4 (0.05 g/l), NaHCO3 (1.0 g/l) and Glucose (1 g/l). The solution was maintained at 37° C. and gassed with 95%O2 and 5%CO2. Portions of the ileum were placed over a glass rod, a shallow incision was made the length of the mesenteric attachment just severing the outer-longitudinal muscle layer. The longitudinal muscle was separated from the underlying circular muscle by gentle dissection (Rang, H. P. Annals of New York Academy of Science, vol. 144, page 756, 1964). The tissue was fixed at one end to a tissue holder, the other end was connected by a thread to a force transducer and suspended in a muscle bath containing Tyrode's Solution maintained at 37° C. and gassed with 95%O2 and 5%CO2. An initial tension of 500 mg was applied and the tissue allowed to equilibrate for 60 minutes prior to the start of the study. During this period the tissue was washed every 16 minutes. Each preparation, at 16 minute intervals, was challenged with KCl sufficient to yield a bath K^+ concentration of 80 mMK for 2 minutes, then washed with fresh solution. The 16 minute interval between K^+ challenges was maintained throughout the study. Upon stabilization of the responses to the K^+ challenge the test compound (potential calcium entry antagonist) was introduced into the bath 2 minutes prior to and during the 2 minute exposure to K^+ after which the bath was cleared and washed with fresh solution. Logarithmically increasing doses (up to 10^-4 M) of the potential antagonist were administered as the study progressed. The measure of a compound's ability to inhibit the tonic contraction of muscle is a measure of its activity as a calcium channel blocking agent.

[1] = tested on: Spontaneously Hypertensive (SH) Rat; test: Blood pressure lowering in the spontaneously hypertensive (SH) rat; format: in vivo; details: oral, male SH rats
Experimental: BLOOD PRESSURE LOWERING IN THE SPONTANEOUSLY HYPERTENSIVE (SH) RAT
Six male SH rats were used for each test. Body weights were recorded. Six pre-drug control recordings of the systolic blood pressure (mmHg) were measured from the tails of the rats which were unanesthetized and restrained in holders. The rats were previously heated for 5-10 minutes at 32°-34° C. The systolic blood pressure was measured by an occlusion cuff.
The compounds were administered orally to the rats in a composition that included 5% compound and the remainder gum acacia. The blood pressure of the rats was measured over a period of hours following oral administration.
The measure of a compound's ability to decrease blood pressure, is a measure of its activity as an anti-hypertensive agent.

Structure (SMILES)	IC50 (Guinea Pig Ileum) [µM]	Systolic Blood Pressure in SH Rat Peak Decrease (Δ mm Hg) ([1]; unanesthetized, occlusion cuff on tail, peak decrease) [mm Hg]	Duration of Effect on blood pressure ([1]; footnote a) [h]
COc1ccc([C@@H]2Sc3cccc4cccc(c34)N(CCN(C)C)C(=O)[C@H]2OC(C)=O)cc1 (racemic) [OCOCH3 HCl (±)-trans, (±)-trans-3-(acetyloxy)-2,3-dihydro-5-[2-(dimethylamino)ethyl]-2-(4-methoxy-phenyl)-naphtho[1,8-bc]-1,5-thiazocin4(5H)-one hydrochloride]	3	–	–
COc1ccc([C@@H]2Sc3cccc4cccc(c34)N(CCN(C)C)C(=O)[C@@H]2O)cc1 (racemic) [OH HCl (±)-cis, (±)-cis-2,3-dihydro-5-[2-(dimethylamino)ethyl]-3-hydroxy-2-(4-methoxyphenyl)naphtho[1,8-bc]-1,5-thiazocin-4(5H)-one hydrochloride]	4.2	–	–
COc1ccc([C@@H]2Sc3cccc4cccc(c34)N(CCN(C)C)C(=O)[C@@H]2OC(C)=O)cc1 (relative stereo) [OCOCH3 HCl (±)-cis, (±)-cis-3-(acetyloxy)-2,3-dihydro-5-[2-dimethylamino)ethyl]-2-(4-methoxyphenyl)naphtho[1,8-bc]-1,5-thiazocin-4(5H)-one hydrochloride]	3.9	–	–
COc1ccc([C@@H]2Sc3cccc4cccc(c34)N(CCN(C)C)C(=O)[C@@H]2OC(C)=O)cc1.O=C(O)/C=C/C(=O)O [OCOCH3 fumarate (+)-cis, (+)-cis-3-(acetyloxy)-2,3-dihydro-5-[2-(dimethylamino)ethyl]-2-(4-methoxyphenyl)naphtho[1,8-bc]-1,5-thiazocin-4(5H)-one (E)-2-butenedioate]	0.25	-66 ± 12	1 to 6
COc1ccc([C@@H]2Sc3cccc4cccc(c34)N(CCN(C)C)C(=O)[C@@H]2O)cc1 [OH HCl (+)-cis, (+)-cis-2,3-dihydro-5-[2-(dimethylamino)ethyl]-3-hydroxy-2-(4-methoxyphenyl)naphtho[1,8-bc]-1,5-thiazocin-4(5H)-one hydrochloride]	3.1	–	–
